This is an account of results in patent US8420624B2, “Methods for treating or preventing symptoms of hormonal variations” (Yung Shin Pharm. Ind. Co., Ltd., priority 2007, dated 2013).

Where two headings read alike, the source gives them in different places.

Series [1] deals with hot flashes. As to conditions: cited from earlier work; for minimizing occurrence and severity of hot flashes versus placebo: randomized clinical trials.
Series [2] concerns hot flashes. The series can be described thus: Case report: risperidone for hot flashes in a case with hysterectomy. The class given is in vivo, human. As to conditions: for response of hot flashes to earlier treatments: person, PREMARIN 0.625 mg/day, PROZAC 20 mg/day, TOFRANIL 20 mg/day, each for 1-2 months. The procedure:
A person was admitted to the hospital in December of 2004 due to hot flashes, hypertension, and restlessness. They had been told that they were suffering from essential hypertension for 16 years and had taken anti-hypertension medications for several years. However, their blood pressure still fluctuated and frequently dropped below critical level after taking sublingual adalate (10 mg) for sudden onsets of high blood pressure. They had no history of psychiatric or systemic diseases, except for a total abdominal hysterectomy. On admission, it was observed that their hot flash attacks occurred many times a day, lasting a few minutes and was usually followed by high blood pressure up to 180-200/84-96 mmHg, general shivers, and anxiety for 20-60 minutes. Such clinical symptoms started and grew progressively worse.
[…] biochemical and hematological results, such as sodium and potassium levels, 140 mmol/L and 4.0 mmol/L, respectively, were all within normal ranges. […] The plasma adrenaline, nor-adrenaline, VMA, epinephrine, and dopamine levels as well as thyroid hormones, including T3, T4, and TSH, were also normal.
Because estrogen withdrawal may alter the thermoregulatory set-point located in the hypothalamus, by increasing the sensitivity of hypothalamic 5-HT2A receptor, a regimen of a 5-HT2A antagonist may provide an effective therapy for symptoms of hormonal variations, such as hot flashes. Thus, the patient was treated with risperidone (2 mg/day). […] Thereafter, the dosage of anti-hypertension drugs was reduced. With the patient's permission, risperidone therapy was discontinued and hot flashes reoccurred within 2-3 days after discontinuing the treatment. The symptoms were again alleviated 3-4 days after resuming risperidone treatment.

The subject of series [3] is cholinergic muscarinic receptors. As to conditions: cited from earlier work.
For another series, the system named is α-adrenergic receptors. As to conditions: cited from earlier work.
The subject of the next series is histamine receptors. As to conditions: cited from earlier work.
For series [4], the system named is hot flashes. As to conditions: cited from earlier work.
The subject of series [5] is hot flashes. As to conditions: pilot trials; cited from earlier work.
Series [6] relates to hot flashes. As to conditions: men and women; placebo 20 percent; cited from earlier work.
Series [7] has as its system hot flashes. As to conditions: other pilot evaluations; compared with venlafaxine and paroxetine; cited from earlier work.
The target of a further series is D2 dopamine receptor (Homo sapiens, UniProt P14416). The settings on record: serial PET scans; cited from earlier work.
The test system of series [8] is hot flashes. Nature of the series: Case report: risperidone for hot flashes in a perimenopausal case. The class given is in vivo, human. The procedure:
Patient 3 was a person who was diagnosed with perimenopause, based on increased levels of follicle-stimulating hormone, increased variability in menstrual cycle length, development of hot flashes, and insomnia. The patient had had these symptoms for two years. […] Risperidone treatment (1 mg per night) was started. At that time, the patient was experiencing seven hot flashes per day. […] With their permission, risperidone was tapered off over two days, and the hot flashes developed again three days later.

For series [9], the system named is hot flashes. The series can be described thus: Case report: risperidone for hot flashes of natural menopause. The class given is in vivo, human. The source says:
Patient 2 was a person who began developing intolerable hot flashes and night sweats after natural menopause that occurred seven years ago. […] One month after discontinuing hormone replacement therapy, they developed hot flashes up to ten times per day, night sweats up to three times per night that disrupted their sleep, and headaches. The patient then sought neurological consultation. The patient also suffered from headaches twice per day and fluctuating blood pressure. […] In addition, they slept well and their blood pressure stabilized. To assess the relationship between risperidone therapy and the resolution of hot flashes, risperidone was tapered off over 2 days. The patient experienced hot flashes and night sweats again two days after risperidone treatment was completely discontinued.

The test system of series [10] is hot flashes. The series can be described thus: Case report: risperidone for residual hot flashes in a case with hormone replacement therapy. The class given is in vivo, human. An excerpt:
Patient 4 was a person who had developed hot flashes, with a frequency of once per hour, palpitation, insomnia, headache, restlessness, and unstable blood pressure for over seven years. Initially, the patient visited a psychiatrist for their sleep disorder and a cardiovascular specialist for their high blood pressure. A year later, because of intolerable hot flashes and other menopausal symptoms, they received hormone replacement therapy (DIVINA®). Although their hot flashes were reduced to twice per day, headaches persisted and their blood pressure fluctuated from 180 to 210/110 to 90 mm Hg despite treatment with anti-hypertension drugs. The patient was started on risperidone treatment, 1 mg at bedtime for the first two days, followed by 2 mg per night, for residual hot flashes.

For a further series, the system named is serotonin receptors. The settings on record: cited from earlier work.
In the next series the test system is dopamine receptors. The settings on record: cited from earlier work.
The target of another series is D1 dopamine receptor (Homo sapiens, UniProt P21728). The settings on record: cited from earlier work.
A further series deals with D2 receptors (Homo sapiens, UniProt P14416). The settings on record: cited from earlier work.
Sequence of D2 receptors (P14416 whole entry): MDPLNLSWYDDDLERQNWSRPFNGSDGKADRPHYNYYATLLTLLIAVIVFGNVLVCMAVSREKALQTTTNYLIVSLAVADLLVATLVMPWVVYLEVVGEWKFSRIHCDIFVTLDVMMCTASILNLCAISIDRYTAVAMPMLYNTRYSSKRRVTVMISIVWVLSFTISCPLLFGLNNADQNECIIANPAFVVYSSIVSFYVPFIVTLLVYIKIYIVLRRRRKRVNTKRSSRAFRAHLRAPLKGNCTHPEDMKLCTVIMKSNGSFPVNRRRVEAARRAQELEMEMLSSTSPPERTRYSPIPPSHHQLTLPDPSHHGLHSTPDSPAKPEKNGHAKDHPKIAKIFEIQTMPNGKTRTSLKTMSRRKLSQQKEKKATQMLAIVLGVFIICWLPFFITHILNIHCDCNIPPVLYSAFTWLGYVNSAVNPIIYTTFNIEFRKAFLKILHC

Sequence of D2 dopamine receptor (P14416 whole entry): as above
Sequence of D1 dopamine receptor (P21728 whole entry): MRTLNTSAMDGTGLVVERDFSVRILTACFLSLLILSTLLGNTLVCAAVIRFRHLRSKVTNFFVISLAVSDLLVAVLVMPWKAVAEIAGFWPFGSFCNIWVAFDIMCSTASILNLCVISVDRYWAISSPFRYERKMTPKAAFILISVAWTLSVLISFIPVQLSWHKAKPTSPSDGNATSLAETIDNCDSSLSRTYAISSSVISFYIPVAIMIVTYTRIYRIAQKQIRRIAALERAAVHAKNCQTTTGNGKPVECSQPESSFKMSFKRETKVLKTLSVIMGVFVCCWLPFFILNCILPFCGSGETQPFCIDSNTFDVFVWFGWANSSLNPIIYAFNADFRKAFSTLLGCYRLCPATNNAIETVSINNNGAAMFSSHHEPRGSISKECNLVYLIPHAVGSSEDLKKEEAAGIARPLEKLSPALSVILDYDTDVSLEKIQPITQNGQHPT

As for `CNCCC(Oc1ccc(C(F)(F)F)cc1)c1ccccc1` (stereo not drawn) [Fluoxetine], the “reduction in hot-flash scores” value in the series with hot flashes [1] (20 mg/day, placebo 36%, P=0.02) is given as 50%. Besides, the “response of hot flashes to earlier treatments” value in the series on hot flashes [2] is listed as “limited success”.
In the case of `CN(C)CCCN1c2ccccc2CCc2ccccc21.Cl` [TOFRANIL®], the “response of hot flashes to earlier treatments” value with hot flashes [2] is listed as “limited success”.
With `O=C1CCc2ccc(OCCCCN3CCN(c4cccc(Cl)c4Cl)CC3)cc2N1` [aripiprazole], the figures for the affinity entry (in series [3]; in the series with α-adrenergic receptors; in the series on histamine receptors) were “no appreciable affinity”, “moderate affinities” and “moderate affinities”, respectively.
For `Clc1cccc(Cl)c1N=C1NCCN1` [clonidine], the adverse effects entry in the series on hot flashes [4] (common adverse effects in clinical trials) was “dry mouth, dizziness, and blurred vision”. The “difference from placebo effect, self-reported hot flash frequency” value in the series with hot flashes [4] (men, double blind cross over study) is listed as “not statistically significant”. In addition, the “efficacy against hot flashes versus placebo” value with hot flashes [4] (randomized clinical trials) is reported as “moderately more efficacious than placebo”. For the same compound, the “decrease of hot flash frequency greater than that seen with placebo” value in the series on hot flashes [4] (women) is given as 10-15%.
Take `NCC1(CC(=O)O)CCCCC1` [gabapentin]: the “reduction of the incidence of hot flashes” value in the series on hot flashes [5] is on record as 42%-70%.
In the case of `CC(=O)O[C@]1(C(C)=O)CC[C@H]2[C@@H]3C=C(C)C4=CC(=O)CC[C@]4(C)[C@H]3CC[C@@]21C` [megestrol acetate], the “reduction in self-reported hot flash frequency” value with hot flashes [6] was ~80%.
Turning to `CN1CCN2c3ncccc3Cc3ccccc3C2C1` (stereo not drawn) [mirtazapine], in the series with hot flashes [7], the “alleviation of hot flashes” value is “alleviate hot flashes to a similar degree”.
In the case of `Fc1ccc([C@@H]2CCNC[C@H]2COc2ccc3c(c2)OCO3)cc1` [paroxetine], the “minimizing occurrence and severity of hot flashes versus placebo” value in the series with hot flashes [1] is reported as “more effective than placebo”.
Regarding `OCCOCCN1CCN(C2=Nc3ccccc3Sc3ccccc32)CC1` [quetiapine], the “dissociation from the D2 receptor” value on D2 dopamine receptor is recorded as “rapidly disassociates”.
As for `Cc1nc2n(c(=O)c1CCN1CCC(c3noc4cc(F)ccc34)CC1)CCCC2` [risperidone], the “hot flashes at decreased dosage” value in the series with hot flashes [8] (risperidone 0.25 mg or less per day, three months later) is “still markedly eliminated”. Also, the “hot flashes after resuming treatment” value in the series on hot flashes [8] (risperidone 1 mg daily resumed) is “no longer experienced hot flashes”; in the series with hot flashes [9] (risperidone 2 mg daily resumed) it was “has not suffered another hot flash since”. Moreover, the “quality of sleep and life” value in the series with hot flashes [8] (risperidone 1 mg daily resumed) is “improved”. Further, the “frequency and intensity of hot flashes” value with hot flashes [8] (risperidone 1 mg per night, three days after start, before: seven hot flashes per day) was “markedly reduced”. In addition, the “time to return of hot flashes after tapering off” value with hot flashes [8] (risperidone tapered off over two days) is listed as “three”. Moreover, the values for the blood pressure entry in the series on hot flashes [9] (risperidone 2 mg per day) and with hot flashes [10] (risperidone 1 mg then 2 mg per night) were “stabilized” and “stabilized within the normal range”, respectively. For the same compound, in the series with hot flashes [9] (risperidone 2 mg per day), the sleep result is listed as “slept well”. Moreover, the “occurrence of hot flashes” value is given as “completely eliminated” with hot flashes [9] (risperidone 2 mg per day, by day 7) and “reduced markedly” in the series on hot flashes [9] (risperidone 2 mg per day, two days after start, before: up to ten times per day). Also, in the series with hot flashes [9] (risperidone tapered off over 2 days), the “time to return of hot flashes and night sweats after treatment completely discontinued” value is reported as “two”. For the same compound, the residual hot flashes entry in the series with hot flashes [10] (risperidone 1 mg at bedtime for two days, then 2 mg per night, three days after start) is listed as “completely eliminated”. In addition, in the series on hot flashes [2] (risperidone 2 mg/day), the “associated symptoms (palpitation, anxiety)” value is “improved significantly”. For the same compound, the hot flash frequency result in the series on hot flashes [2] (risperidone 2 mg/day, after three days of treatment, before: many times a day) is on record as “reduced markedly to a frequency of once per 1-2 weeks”. In addition, the “time to reoccurrence of hot flashes after discontinuing treatment” value in the series with hot flashes [2] (risperidone discontinued) was in the range of 2 to 3 days. Besides, the “time to alleviation of symptoms after resuming treatment” value with hot flashes [2] (risperidone resumed) lay in the range of 3 to 4 days.
As for `COc1ccc(C(CN(C)C)C2(O)CCCCC2)cc1` (stereo not drawn) [venlafaxine], the “reduction in hot-flash scores” value is listed as 37% in the series on hot flashes [1] (low-dose (37.5 mg/day), placebo 27%); 61% with hot flashes [1] (moderate and high doses (75 and 150 mg/day)). Further, the “minimizing occurrence and severity of hot flashes versus placebo” value with hot flashes [1] was “more effective than placebo”.
As to `O=C1Cc2cc(CCN3CCN(c4nsc5ccccc45)CC3)c(Cl)cc2N1` [ziprasidone], the affinity entry is listed as “high affinity” with serotonin receptors, “high affinity” with α-adrenergic receptors, “moderate affinity” with histamine receptors and “high affinity” with dopamine receptors.
Regarding `CN(C)CCOC1=Cc2ccccc2Sc2ccc(Cl)cc21` [zotepine], the affinity entry on D1 dopamine receptor and on D2 receptors was “high affinity” each time.
As for estrogen, in the series with hot flashes [8] (perimenopausal person), the “response to estrogen therapy” value is “responded well”.
